Test results as given in PMC5047689 (Disease Models & Mechanisms, 2016).

Key:
[1] = tested on: ALK (phospho-ALK-Y1278) and downstream signaling; test: Immunoblotting of ALK signaling in CLB-BAR and CLB-GE neuroblastoma cells; type: cell-based, human; details: 6 h treatment, western blot
Protocol: (§1) Fig. 1. […] (A,B) Proliferation was assessed over 5 days using the resazurin cell proliferation assay in the following neuroblastoma cell lines: CLB-BAR, CLB-GE, CLB-PE, SK-N-AS and IMR32. Neuroblastoma cell line characteristics: CLB-GE – MYCN amplified, 1p deletion, 17q gain, amplified ALK amplicon containing an ALK^F1174V mutation; CLB-BAR – amplified MYCN/ALK, Δexon 4-11, 1p deletion, 17q gain; IMR32 – MYCN, wt sequence but exons 2-4 are amplified, 1p deletion, 17q gain; CLB-PE – 1p gain, amplified MYCN, 17q gain; SK-N-AS – IGF-1 overexpressing, 1p deletion, 1q gain, 17q gain, 17 deletion. […] Cells were harvested and pre-cleared cell lysates were analyzed on SDS PAGE followed by western blotting for ALK, phospho-ALK-Y1278, phospho-ERK5, pan-ERK5 phospho-ERK1/2 and pan-ERK. Actin was employed as a loading control. Protein band intensities were quantified by Image Studio Lite 3.1 and normalized to untreated samples.
(§2) CLB-BAR, CLB-GE, CLB-PE, SK-N-AS and IMR32 neuroblastoma cells (0.25×10^6) were plated on collagen-coated 48-well plates.

[2] = set-up: method as in Johnson et al., 2014; Zou et al., 2015; details: ref Johnson et al., 2014, Zou et al., 2015, cited from earlier work
CLB-PE cells = test: Resazurin cell proliferation assay, neuroblastoma cell line; type: cell-based, human
Protocol: as §1, §2

IMR32 cells = test: as above; type: cell-based, human
Protocol: as §1, §2

SK-N-AS cells = test: as above; type: cell-based, human
Protocol: as §1, §2

CLB-BAR cells = test: as above; type: cell-based; details: Homo sapiens, 120 h, read-out: IC50, inhibition of proliferation
Protocol: as §1, §2

[3] = molecular target: ALK kinase domain mutants; test: In vitro kinase assay, summary over ALK kinase domain mutants; type: biochemical, human; details: including ALK^G1269A, read-out: inhibitor level for 50% reduction in activity, all kinase domain mutations tested
CLB-GE cells = test: Resazurin cell proliferation assay, neuroblastoma cell line; type: cell-based; details: Homo sapiens, 120 h, read-out: IC50, inhibition of proliferation
Protocol: Fig. 1. […] Treatment of neuroblastoma cells with the ALK TKIs crizotinib and PF-06463922. (A,B) Proliferation was assessed over 5 days using the resazurin cell proliferation assay in the following neuroblastoma cell lines: CLB-BAR, CLB-GE, CLB-PE, SK-N-AS and IMR32. Neuroblastoma cell line characteristics: CLB-GE – MYCN amplified, 1p deletion, 17q gain, amplified ALK amplicon containing an ALK^F1174V mutation; CLB-BAR – amplified MYCN/ALK, Δexon 4-11, 1p deletion, 17q gain; IMR32 – MYCN, wt sequence but exons 2-4 are amplified, 1p deletion, 17q gain; CLB-PE – 1p gain, amplified MYCN, 17q gain; SK-N-AS – IGF-1 overexpressing, 1p deletion, 1q gain, 17q gain, 17 deletion. […] Cells were harvested and pre-cleared cell lysates were analyzed on SDS PAGE followed by western blotting for ALK, phospho-ALK-Y1278, phospho-ERK5, pan-ERK5 phospho-ERK1/2 and pan-ERK. Actin was employed as a loading control. Protein band intensities were quantified by Image Studio Lite 3.1 and normalized to untreated samples.
The neuroblastoma CLB cell lines were from Valerie Combaret (Centre Leon Berard, France) under material transfer agreement and all cell lines were authenticated during the investigation with Affymetrix Cytoscan High Density array and compared with earlier cytoscans ([Schleiermacher et al., 2003]). […]

[4] = tested on: EML4-ALK-driven brain metastases; set-up: method as in Zou et al., 2015; details: mouse; effect reversible upon withdrawal; ref Zou et al., 2015; cited from earlier work
[5] = tested on: CLB-GE subcutaneous xenograft; test: Subcutaneous CLB-GE (ALK^F1174V) xenograft in nude mice; type: in vivo, mouse
Protocol: Fig. 5. […] 4.5×10^6 CLB-GE cells were injected into left shoulder subcutaneously. (A) Tumor growth curves represent the average volume of vehicle group and PF-06463922-treated group, P≤0.05 (n=5 for each group). […] (C) Average body weight on the day of sacrifice is shown, P>0.05. (D) Immunoblotting analysis of indicated proteins from tumors collected after 8 days of treatment with vehicle or PF-0646399 and relapsed tumors. Tumor lysates were harvested, pre-cleared and analyzed by western blotting for ALK, phospho-ALK-Y1278, MYCN, phospho-ERK1/2 and phospho-AKT. Pan-ERK and pan-Akt were employed as loading controls. (E) Immunohistochemical staining of tumors for […] as a measure of proliferation rate as indicated. […] Data in all graphs presented as mean±s.d.
Mice were grouped by tumor volume randomly. […] Immunohistochemistry was as described ([Yamazaki et al., 2014]). […] (n=15).

[6] = 10 mg/kg twice per day, oral gavage, 7 days
[7] = 10 mg/kg twice per day, tumor lysates, western blot

| SMILES | ALK Y1278 phosphorylation [1] | downstream signaling, pERK1/2 and pERK5 [1] | half-life ([2]; preclinical animal model) [h] | central nervous system penetration [2] | decrease in proliferation at high doses (CLB-PE cells; high doses (500 nM)) | inhibition of proliferation (CLB-PE cells; increasing doses, 5 days) | decrease in proliferation at high doses (IMR32 cells; high doses (500 nM)) | inhibition of proliferation (IMR32 cells; increasing doses, 5 days) | decrease in proliferation at high doses (SK-N-AS cells; high doses (500 nM)) | inhibition of proliferation (SK-N-AS cells; increasing doses, 5 days) | IC50 (CLB-BAR cells) [µM] | IC50 [3] [µM] | IC50 (CLB-GE cells) [µM] | tumor volume and survival [4] | Ki-67 staining of tumors ([5]; 10 mg/kg twice per day, immunohistochemistry) | body weight during treatment [5, 6] | tumor size during treatment [5, 6] | MYCN expression in tumors [5, 7] | phosphorylated ALK, ERK1/2 and PKB/Akt in tumors [5, 7] | tumor re-growth after cessation of therapy ([5]; after 7 days of 10 mg/kg twice per day, treatment discontinued) |
| --- | --- | --- | --- | --- | --- | --- | --- | --- | --- | --- | --- | --- | --- | --- | --- | --- | --- | --- | --- | --- |
| C[C@H]1Oc2cc(cnc2N)-c2c(nn(C)c2C#N)CN(C)C(=O)c2ccc(F)cc21 [PF-06463922, (10R)-7-amino-12-fluoro-2,10,16-trimethyl-15-oxo-10,15,16,17-tetrahydro-2H-8,4-(metheno)pyrazolo[4,3-h][2,5,11]-benzoxadiazacyclotetradecine-3-carbonitrile] | loss of tyrosine 1278 (Y1278) phosphorylation on ALK | inhibition of downstream signaling | 2.7 | ability to penetrate the central nervous system | not observed | did not observe inhibition of proliferation | not observed | did not observe inhibition of proliferation | not observed | did not observe inhibition of proliferation | 0.016 ± 0.002 | < 0.0065 | 0.025 ± 0.002 | regression of tumor volume and prolonged mouse survival | reduced staining of the proliferation marker Ki-67 | no observed loss of body weight | no increase of tumor size during treatment | reduced expression of MYCN | Inhibition of phosphorylated ALK, ERK1/2 and PKB/Akt was observed | Tumor re-growth was observed 7 days after cessation of therapy |
| C[C@@H](Oc1cc(-c2cnn(C3CCNCC3)c2)cnc1N)c1c(Cl)ccc(F)c1Cl [crizotinib] | – | – | – | – | – | – | – | – | – | – | – | – | 0.24 ± 0.027 | – | – | – | – | – | – | – |
